{"source": "patent US20170043031A1", "about": "“IGF-1R ANTIBODY-DRUG-CONJUGATE AND ITS USE FOR THE TREATMENT OF CANCER” (PIERRE FABRE MEDICAMENT, priority 2014, published 2017)", "system": "lysosome functions", "experiment": "Inhibition of Abs degradation using lysosome inhibitor", "format": "cell-based", "settings": "10 μg/ml of Ab, 2 h at 37° C.", "protocol": "In order to confirm that antibodies reached the lysosome were they are degraded, cells were treated or not with bafilomycine A1, a potent inhibitor of lysosome functions. Cells were then incubated with 10 μg/ml of Ab to be tested at 4° C., washed and incubated for 2 h at 37° C. The internalized Ab was detected after cell permeabilisation using a secondary anti-mouse IgG-Alexa 488 Ab."}
{"molecule": "CO/C1=C\\C(C)=C\\[C@@H](C)[C@@H](O)[C@@H](C)C/C(C)=C/C=C/[C@H](OC)[C@@H]([C@@H](C)[C@@H](O)[C@H](C)[C@@]2(O)C[C@@H](O)[C@H](C)[C@@H](C(C)C)O2)OC1=O", "note": "[bafilomycine A1]", "values": [{"measurement": "degradation of intracellular Ab", "result": "prevented the degradation of intracellular Ab"}]}
